Assay results from patent US9469650B2, “Melampomagnolide B derivatives” (BOARD OF TRUSTEES OF THE UNIVERSITY OF ARKANSAS, priority 2013, dated 2016).

What was measured:
K-562 = assay: panel of 60 human tumor cell lines, growth inhibition (Leukemia); settings: K-562
LOX IMVI = assay: panel of 60 human tumor cell lines, growth inhibition (Melanoma)
SK-MEL-2 = assay: as above; settings: SK-MEL-2
SK-MEL-28 = assay: as above; settings: SK-MEL-28
SK-MEL-5 = assay: as above; settings: 8K-MEL-5
UACC-257 = assay: as above; settings: UACC-257
SF-295 = assay: panel of 60 human tumor cell lines, growth inhibition (CNS Cancer); settings: SF-295
U251 = assay: as above; settings: U251
RXF 393 = assay: panel of 60 human tumor cell lines, growth inhibition (Renal Cancer); settings: RXF 393
BT-549 = assay: panel of 60 human tumor cell lines, growth inhibition (Breast Cancer); settings: BT-549
OVCAR-3 = assay: panel of 60 human tumor cell lines, growth inhibition (Ovarian Cancer); settings: OVCAR-3
OVCAR-5 = assay: as above; settings: OVCAR-5
OVCAR-8 = assay: as above; settings: OVCAR-8
SK-OV-3 = assay: as above; settings: SK-OV-3
DU-145 = assay: panel of 60 human tumor cell lines, growth inhibition (Prostate Cancer); settings: DU-145
A549/ATCC = assay: panel of 60 human tumor cell lines, growth inhibition (Non-Small Cell Lung Cancer); settings: A549/ATCC
HOP-62 = assay: as above; settings: HOP-62
NCI-H322M = assay: as above

SMILES: C=C1C(=O)O[C@H]2[C@H]1CC/C(COC(=O)NCCO)=C\CC[C@@]1(C)O[C@@H]21 [JVM 2-50]
- Percent Growth (K-562; Log10 Concentration −4.0): −25%
- Percent Growth (K-562; Log10 Concentration −5.0): 23%
- Percent Growth (K-562; Log10 Concentration −6.0): 100%
- Percent Growth (K-562; Log10 Concentration −7.0): 110%
- Percent Growth (K-562; Log10 Concentration −8.0): 119%
- GI50 (K-562; NCI five dose): 4.51 µM
- TGI (K-562; NCI five dose): 3.02E−5
- Percent Growth (LOX IMVI; Log10 Concentration −4.0): −88%
- Percent Growth (LOX IMVI; Log10 Concentration −5.0): 67%
- Percent Growth (LOX IMVI; Log10 Concentration −6.0): 98%
- Percent Growth (LOX IMVI; Log10 Concentration −7.0): 102%
- Percent Growth (LOX IMVI; Log10 Concentration −8.0): 100%
- GI50 (LOX IMVI; NCI five dose): 12.9 µM
- TGI (LOX IMVI; NCI five dose): 2.72E−5
- Percent Growth (SK-MEL-2; Log10 Concentration −4.0): −54%
- Percent Growth (SK-MEL-2; Log10 Concentration −5.0): 83%
- Percent Growth (SK-MEL-2; Log10 Concentration −6.0): 115%
- Percent Growth (SK-MEL-2; Log10 Concentration −7.0): 116%
- Percent Growth (SK-MEL-2; Log10 Concentration −8.0): 106%
- GI50 (SK-MEL-2; NCI five dose): 18.5 µM
- TGI (SK-MEL-2; NCI five dose): 4.18E−5
- Percent Growth (SK-MEL-28; Log10 Concentration −4.0): −61%
- Percent Growth (SK-MEL-28; Log10 Concentration −5.0): 48%
- Percent Growth (SK-MEL-28; Log10 Concentration −6.0): 99%
- Percent Growth (SK-MEL-28; Log10 Concentration −7.0): 104%
- Percent Growth (SK-MEL-28; Log10 Concentration −8.0): 95%
- GI50 (SK-MEL-28; NCI five dose): 9.33 µM
- TGI (SK-MEL-28; NCI five dose): 2.77E−5
- Percent Growth (SK-MEL-5; Log10 Concentration −4.0): −34%
- Percent Growth (SK-MEL-5; Log10 Concentration −5.0): 84%
- Percent Growth (SK-MEL-5; Log10 Concentration −6.0): 100%
- Percent Growth (SK-MEL-5; Log10 Concentration −7.0): 100%
- Percent Growth (SK-MEL-5; Log10 Concentration −8.0): 102%
- GI50 (SK-MEL-5; NCI five dose): 19.5 µM
- TGI (SK-MEL-5; NCI five dose): 5.15E−5
- Percent Growth (UACC-257; Log10 Concentration −4.0): −73%
- Percent Growth (UACC-257; Log10 Concentration −5.0): 44%
- Percent Growth (UACC-257; Log10 Concentration −6.0): 65%
- Percent Growth (UACC-257; Log10 Concentration −7.0): 90%
- Percent Growth (UACC-257; Log10 Concentration −8.0): 95%
- GI50 (UACC-257; NCI five dose): 7 µM
- TGI (UACC-257; NCI five dose): 2.37E−5
- Percent Growth (SF-295; Log10 Concentration −4.0): 44%
- Percent Growth (SF-295; Log10 Concentration −5.0): 92%
- Percent Growth (SF-295; Log10 Concentration −6.0): 95%
- Percent Growth (SF-295; Log10 Concentration −7.0): 90%
- Percent Growth (SF-295; Log10 Concentration −8.0): 88%
- GI50 (SF-295; NCI five dose): 73.7 µM
- TGI (SF-295; NCI five dose): 1.06E−4
- Percent Growth (U251; Log10 Concentration −4.0): −26%
- Percent Growth (U251; Log10 Concentration −5.0): 94%
- Percent Growth (U251; Log10 Concentration −6.0): 91%
- Percent Growth (U251; Log10 Concentration −7.0): 95%
- Percent Growth (U251; Log10 Concentration −8.0): 97%
- GI50 (U251; NCI five dose): 23.3 µM
- TGI (U251; NCI five dose): 6.08E−5
- Percent Growth (RXF 393; Log10 Concentration −4.0): −68%
- Percent Growth (RXF 393; Log10 Concentration −5.0): 20%
- Percent Growth (RXF 393; Log10 Concentration −6.0): 98%
- Percent Growth (RXF 393; Log10 Concentration −7.0): 93%
- Percent Growth (RXF 393; Log10 Concentration −8.0): 91%
- GI50 (RXF 393; NCI five dose): 4.14 µM
- TGI (RXF 393; NCI five dose): 1.69E−5
- Percent Growth (BT-549; Log10 Concentration −4.0): −91%
- Percent Growth (BT-549; Log10 Concentration −5.0): 21%
- Percent Growth (BT-549; Log10 Concentration −6.0): 83%
- Percent Growth (BT-549; Log10 Concentration −7.0): 91%
- Percent Growth (BT-549; Log10 Concentration −8.0): 85%
- GI50 (BT-549; NCI five dose): 3.26 µM
- TGI (BT-549; NCI five dose): 1.53E−5
- Percent Growth (OVCAR-3; Log10 Concentration −4.0): −93%
- Percent Growth (OVCAR-3; Log10 Concentration −5.0): 40%
- Percent Growth (OVCAR-3; Log10 Concentration −6.0): 103%
- Percent Growth (OVCAR-3; Log10 Concentration −7.0): 106%
- Percent Growth (OVCAR-3; Log10 Concentration −8.0): 103%
- GI50 (OVCAR-3; NCI five dose): 6.27 µM
- TGI (OVCAR-3; NCI five dose): 1.99E−5
- Percent Growth (OVCAR-5; Log10 Concentration −4.0): −54%
- Percent Growth (OVCAR-5; Log10 Concentration −5.0): 68%
- Percent Growth (OVCAR-5; Log10 Concentration −6.0): 85%
- Percent Growth (OVCAR-5; Log10 Concentration −7.0): 91%
- Percent Growth (OVCAR-5; Log10 Concentration −8.0): 89%
- GI50 (OVCAR-5; NCI five dose): 14 µM
- TGI (OVCAR-5; NCI five dose): 1.59E−5
- Percent Growth (OVCAR-8; Log10 Concentration −4.0): −25%
- Percent Growth (OVCAR-8; Log10 Concentration −5.0): 62%
- Percent Growth (OVCAR-8; Log10 Concentration −6.0): 97%
- Percent Growth (OVCAR-8; Log10 Concentration −7.0): 96%
- Percent Growth (OVCAR-8; Log10 Concentration −8.0): 98%
- GI50 (OVCAR-8; NCI five dose): 13.7 µM
- TGI (OVCAR-8; NCI five dose): 5.15E−5
- Percent Growth (SK-OV-3; Log10 Concentration −4.0): 23%
- Percent Growth (SK-OV-3; Log10 Concentration −5.0): 106%
- Percent Growth (SK-OV-3; Log10 Concentration −6.0): 103%
- Percent Growth (SK-OV-3; Log10 Concentration −7.0): 103%
- Percent Growth (SK-OV-3; Log10 Concentration −8.0): 92%
- GI50 (SK-OV-3; NCI five dose): 47 µM
- TGI (SK-OV-3; NCI five dose): >1.00E−4
- Percent Growth (DU-145; Log10 Concentration −4.0): −92%
- Percent Growth (DU-145; Log10 Concentration −5.0): 60%
- Percent Growth (DU-145; Log10 Concentration −6.0): 107%
- Percent Growth (DU-145; Log10 Concentration −7.0): 106%
- Percent Growth (DU-145; Log10 Concentration −8.0): 108%
- GI50 (DU-145; NCI five dose): 11.6 µM
- TGI (DU-145; NCI five dose): 2.47E−5
- Percent Growth (A549/ATCC; Log10 Concentration −4.0): 3%
- Percent Growth (A549/ATCC; Log10 Concentration −5.0): 93%
- Percent Growth (A549/ATCC; Log10 Concentration −6.0): 96%
- Percent Growth (A549/ATCC; Log10 Concentration −7.0): 92%
- Percent Growth (A549/ATCC; Log10 Concentration −8.0): 96%
- GI50 (A549/ATCC; NCI five dose): 30.2 µM
- TGI (A549/ATCC; NCI five dose): >1.00E−4
- Percent Growth (HOP-62; Log10 Concentration −4.0): 9%
- Percent Growth (HOP-62; Log10 Concentration −5.0): 88%
- Percent Growth (HOP-62; Log10 Concentration −6.0): 92%
- Percent Growth (HOP-62; Log10 Concentration −7.0): 90%
- Percent Growth (HOP-62; Log10 Concentration −8.0): 88%
- GI50 (HOP-62; NCI five dose): 30.4 µM
- TGI (HOP-62; NCI five dose): >1.00E−4
- Percent Growth (NCI-H322M; Log10 Concentration −4.0): 32%
- Percent Growth (NCI-H322M; Log10 Concentration −5.0): 109%
- Percent Growth (NCI-H322M; Log10 Concentration −6.0): 105%
- Percent Growth (NCI-H322M; Log10 Concentration −7.0): 109%
- Percent Growth (NCI-H322M; Log10 Concentration −8.0): 105%
- GI50 (NCI-H322M; NCI five dose): 58.8 µM
- TGI (NCI-H322M; NCI five dose): >1.00E−4
